Reference: patent US20090054403A1, “Treatment of Post-Traumatic Stress Disorder” (priority 2007, published 2009)

System: tissue noradrenaline and dopamine content
Experiment: Tissue catecholamines in SHR after three oral doses 12 h apart
Format: in vivo, spontaneously hypertensive rats (SHR)
Procedure: The activity of nepicastat at twelve selected enzymes and receptors was determined using established assays. Details of individual receptor radioligand binding assays can be found in Wong et al (1993). Binding data were analyzed by iterative curve-fitting to a four parameter logistic equation. Ki values were calculated from IC50 values using the Cheng-Prusoff equation. Enzyme inhibitory activity was expressed as IC50 (concentration required to produce 50% inhibition of enzyme activity). Male SHRs (15-16 weeks old, Charles River, Wilmington, Mass., USA) were used in the study. On the day of the study, animals were weighed and randomly assigned to be dosed with either vehicle (control) or the appropriate dose of nepicastat (3, 10, 30 or 100 mg.kg^−1, po) or (R)-5-Aminomethyl-1-(5,7-difluoro-1,2,3,4-tetrahydronaphth-2-yl)-2,3-dihydro-2-thioxo-1H-imidazole hydrochloride (30 mg.kg^−1, po) three consecutive times, twelve hours apart. At six hours after the third dose, the rats were anaesthetized with halothane, decapitated and tissues (cerebral cortex, mesenteric artery and left ventricle) were rapidly harvested, weighed, placed in iced perchloric acid (0.4 M), frozen in liquid nitrogen and stored at −70° C. until subsequent analysis. To quantify noradrenaline and dopamine concentrations, tissues were homogenized by brief sonication and centrifuged at 13,000 rpm for 30 minutes at 4° C. The supernatant, spiked with 3,4-dihydroxybenzylamine (internal standard), was assayed for noradrenaline and dopamine by HPLC using electrochemical detection.
In vivo biochemical studies in spontaneously hypertensive rats (SHR) and normal dogs. Mate SHR (15-16 week old, Charles River, Wilmington, Mass.) were used in the study. On the day of the study, the animals were weighed and randomly assigned to receive either placebo (vehicle) or the appropriate dose of 2a, 2b or 1. Each rat was dosed orally three times, 12 h apart, beginning in the morning. At 6 h after the third dose, the rats were anesthetized with halothane, decapitated, and the tissues (cerebral cortex, mesenteric artery and left ventricle) were rapidly harvested, weighed, placed in iced 0.4 M perchloric acid, frozen in liquid nitrogen and stored at −70° C. until analysis. Tissue NE and DA concentrations were assayed by HPLC using electrochemical detection.
Fifteen to sixteen week old male spontaneously hypertensive rats (SHR) (Charles River Labs) were allowed food and water ad libitum. Animals were weighed and randomly assigned to one of the following treatment groups: 1) distilled water vehicle (dH2O), or nepicastat at 3, 10, 30, and 100 mg/kg, 2) (R)-5-Aminomethyl-1-(5,7-difluoro-1,2,3,4-tetrahydronaphth-2-yl)-2,3-dihydro-2-thioxo-1H-imidazole hydrochloride at 30 mg/kg in distilled water, or 3) PEG 400:dH2O vehicle or RS-2643 1-000 at 30 mg/kg. Each rat was dosed orally (p.o., using a gavage needle) three times 12 hours apart, beginning in the morning. At six hours after the third dose rats were anesthetized with halothane, decapitated, and the cortex, mesenteric artery, and left ventricle were rapidly harvested, weighed, placed in iced 0.4 M perchioric acid, frozen in liquid nitrogen, and stored at −70° C. Tissue dopamine and norepinephrine concentrations were assayed by high performance liquid chromatography and electrochemical detection.
Four series of statistical analyses were performed. The first series compared the rats treated with various doses of nepicastat, and (R)-5-Aminomethyl-1-(5,7-difluoro-1,2,3,4-tetrahydronaphth-2-yl)-2,3-dihydro-2-thioxo-1H-imidazole hydrochloride at 30 mg/kg to the vehicle control animals. A nonparametric one-way analysis of variance (ANOVA) with factor Dose and blocking factor Day was performed for each tissue and strain separately. Overall results are reported. Pairwise analysis between treated and controls at each dose were carried out using Dunnett's test to control the experiment-wise error rate. […]

[1] = 100 mg/kg po x3, 6 h after third dose
[2] = conclusion over rat dose-response studies
[3] = doses of 3, 10, 30 and 100 mg/kg

Cl.NCc1c[nH]c(=S)n1[C@@H]1CCc2c(F)cc(F)cc2C1 [R-enantiomer, (R)-5-Aminomethyl-1-(5,7-difluoro-1,2,3,4-tetrahydronaphth-2-yl)-2,3-dihydro-2-thioxo-1H-imidazole hydrochloride]
dopamine vs vehicle, cerebral cortex (30 mg/kg po x3): significant increase
dopamine vs vehicle, left ventricle (30 mg/kg po x3): significant increase
dopamine vs vehicle, mesenteric artery (30 mg/kg po x3): significant increase
dopamine/norepinephrine ratio vs vehicle, cerebral cortex (30 mg/kg po x3): no effect
dopamine/norepinephrine ratio vs vehicle, left ventricle (30 mg/kg po x3): significant increase
dopamine/norepinephrine ratio vs vehicle, mesenteric artery (30 mg/kg po x3): significant increase
increase in DA/NE ratio, cerebral cortex (30 mg/kg po x3): 1.1 fold
increase in DA/NE ratio, left ventricle (30 mg/kg po x3): 3.5 fold
increase in DA/NE ratio, mesenteric artery (30 mg/kg po x3): 2.6 fold
norepinephrine vs vehicle, cerebral cortex (30 mg/kg po x3): significant increase
norepinephrine vs vehicle, left ventricle (30 mg/kg po x3): did not significantly lower
norepinephrine vs vehicle, mesenteric artery (30 mg/kg po x3): did not significantly lower

Fc1cc(F)cc(Cn2cc[nH]c2=S)c1 [SKF 102698, reference compound]
dopamine vs vehicle, cerebral cortex (30 mg/kg po x3): significantly greater (p<0.01) than vehicle
dopamine vs vehicle, left ventricle (30 mg/kg po x3): significantly greater (p<0.01) than vehicle
dopamine vs vehicle, mesenteric artery (30 mg/kg po x3): significantly greater than vehicle
dopamine/norepinephrine ratio vs vehicle, cerebral cortex (30 mg/kg po x3): significantly (p<0.01) greater than vehicle
dopamine/norepinephrine ratio vs vehicle, left ventricle (30 mg/kg po x3): significantly (p<0.05) greater than vehicle
dopamine/norepinephrine ratio vs vehicle, mesenteric artery (30 mg/kg po x3): significantly greater than vehicle
increase in DA/NE ratio, cerebral cortex (30 mg/kg po x3): 2.7 fold
increase in DA/NE ratio, left ventricle (30 mg/kg po x3): 3.5 fold
increase in DA/NE ratio, mesenteric artery (30 mg/kg po x3): 5.5 fold
norepinephrine vs vehicle, cerebral cortex (30 mg/kg po x3): significantly lower than vehicle
norepinephrine vs vehicle, left ventricle (30 mg/kg po x3): not different from vehicle
norepinephrine vs vehicle, mesenteric artery (30 mg/kg po x3): significantly lower than vehicle

Cl.NCc1c[nH]c(=S)n1[C@H]1CCc2c(F)cc(F)cc2C1 [nepicastat, (S)-5-Aminomethyl-1-(5,7-difluoro-1,2,3,4-tetrahydronaphth-2-yl)-2,3-dihydro-2-thioxo-1H-imidazole hydrochloride]
increase in DA/NE ratio, cerebral cortex (30 mg/kg po x3): 1.5 fold
increase in DA/NE ratio, left ventricle (30 mg/kg po x3): 7.5 fold
increase in DA/NE ratio, mesenteric artery (30 mg/kg po x3): 8.3 fold
maximal increase in DA/NE ratio, artery (mesenteric) (100 mg/kg po x3): 14 fold
maximal increase in DA/NE ratio, cerebral cortex (100 mg/kg po x3): 3.2 fold
maximal increase in DA/NE ratio, left ventricle (100 mg/kg po x3): 11 fold
decrease in noradrenaline, cerebral cortex [1]: 42%
decrease in noradrenaline, left ventricle [1]: 35%
decrease in noradrenaline, mesenteric artery [1]: 47%
increase in dopamine, cerebral cortex [1]: 86%
increase in dopamine, left ventricle [1]: 800%
increase in dopamine, mesenteric artery [1]: 820%
norepinephrine concentration vs vehicle, mesenteric artery (10, 30 and 100 mg/kg): not significantly less (p>0.05) than vehicle
dopamine/norepinephrine ratio vs vehicle, mesenteric artery (all doses (3-100 mg/kg)): significantly (p<0.05) greater than vehicle
in vivo potency compared with the R enantiomer (all three tissues at 30 mg/kg): more potent than the R enantiomer
dose inhibiting DBH in the cerebral cortex of rats [2]: 60 to 100 mg/kg/day
dose inhibiting DBH in the left ventricle and mesenteric artery of rats [2]: 1 to 6 mg/kg/day
dopamine concentration vs vehicle, left ventricle [3]: significantly (p<0.05) greater than vehicle
dopamine concentration vs vehicle, mesenteric artery [3]: significantly (p<0.05) greater than vehicle
dopamine/norepinephrine ratio vs vehicle, left ventricle [3]: significantly (p<0.05) greater than vehicle
norepinephrine concentration vs vehicle, left ventricle (doses of 10, 30 and 100 mg/kg): significantly (p<0.05) lower than vehicle
dopamine concentration vs vehicle, cerebral cortex (doses of 30 and 100 mg/kg): significantly (p<0.05) greater
dopamine/norepinephrine ratio vs vehicle, cerebral cortex (doses of 30 and 100 mg/kg): significantly (p<0.05) greater
norepinephrine concentration vs vehicle, cerebral cortex (doses of 30 and 100 mg/kg): significantly (p<0.05) lower
doses at which catecholamine changes attained statistical significance (p<0.05) (mesenteric artery and left ventricle): > 3 mg/kg
in vivo effectiveness compared with SKF 102698 (three doses at 30 mg/kg over 24 hours): more effective than SKF 102698 in the mesenteric artery and left ventricle, but less effective in the cerebral cortex
